Assay [1] concerns the target mutEGFR (D770_N771insSVD) (Homo sapiens (Human), UniProt P00533, INS770SVD). The experiment in a line: biochemical. Particulars: mutEGFR (D770_N771 insSVD) at 2 mM ATP IC50, 2 mM ATP.
A further assay deals with human Bub1 (Homo sapiens (Human), UniProt O43683). Nature of the assay: Bub1 high ATP kinase assay (TR-FRET). The assay is classed as biochemical. From the text:
Bub1-inhibitory activity of compounds of the present invention at a high ATP concentration was quantified employing the Bub1 TR-FRET high ATP kinase assay as described in the following paragraphs.
N-terminally His6-tagged recombinant catalytic domain of human Bub1 (amino acids 704-1085), expressed in insect cells (Hi5) and purified by Ni-NTA affinity chromatography and subsequent size exclusion chromatography, was used as enzyme.
On the technique in general: TR-FRET usually uses a lanthanide donor and a delayed reading to cut background.

Another assay concerns Ba/F3-EGFR-insSVD. Nature of the assay: Ba/F3 cell survival assay, EGFR-insSVD. The class given is cell-based. The method in brief:
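Ba/F3 cells stably expressing WT EGFR or EGFR-insSVD via retrovirus, grown without IL-3 on 10 ng/mL EGF, plated at 4000 cells/well. Compound exposure 48 h at 37 °C; viability read by CellTiter-Glo luminescence.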

The next assay deals with Ba/F3-EGFR-WT. Nature of the assay: Ba/F3 cell survival assay, WT EGFR. The class given is cell-based.

SMILES strings stand for the structures. Several values for one entry are separate records, joined by “and”; a condition that tells them apart may be missing. Identical values can stand only once. Like-named read-outs stand apart in the source and are kept apart here.

human Bub1, sequence (O43683 704-1085): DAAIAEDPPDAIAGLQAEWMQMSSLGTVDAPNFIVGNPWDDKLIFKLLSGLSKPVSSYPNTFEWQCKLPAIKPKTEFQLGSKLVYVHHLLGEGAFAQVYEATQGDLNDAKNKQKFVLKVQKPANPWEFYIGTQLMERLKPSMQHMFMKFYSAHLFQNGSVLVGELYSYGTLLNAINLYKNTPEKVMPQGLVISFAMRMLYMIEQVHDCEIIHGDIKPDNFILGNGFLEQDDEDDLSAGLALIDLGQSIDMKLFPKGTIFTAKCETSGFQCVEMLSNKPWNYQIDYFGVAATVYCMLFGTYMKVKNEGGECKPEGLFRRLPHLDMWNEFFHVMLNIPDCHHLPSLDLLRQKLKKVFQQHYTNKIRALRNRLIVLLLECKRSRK
mutEGFR (D770_N771insSVD), sequence (P00533 other isoform, or with tags, fused parts or gaps ins SVD behind 770): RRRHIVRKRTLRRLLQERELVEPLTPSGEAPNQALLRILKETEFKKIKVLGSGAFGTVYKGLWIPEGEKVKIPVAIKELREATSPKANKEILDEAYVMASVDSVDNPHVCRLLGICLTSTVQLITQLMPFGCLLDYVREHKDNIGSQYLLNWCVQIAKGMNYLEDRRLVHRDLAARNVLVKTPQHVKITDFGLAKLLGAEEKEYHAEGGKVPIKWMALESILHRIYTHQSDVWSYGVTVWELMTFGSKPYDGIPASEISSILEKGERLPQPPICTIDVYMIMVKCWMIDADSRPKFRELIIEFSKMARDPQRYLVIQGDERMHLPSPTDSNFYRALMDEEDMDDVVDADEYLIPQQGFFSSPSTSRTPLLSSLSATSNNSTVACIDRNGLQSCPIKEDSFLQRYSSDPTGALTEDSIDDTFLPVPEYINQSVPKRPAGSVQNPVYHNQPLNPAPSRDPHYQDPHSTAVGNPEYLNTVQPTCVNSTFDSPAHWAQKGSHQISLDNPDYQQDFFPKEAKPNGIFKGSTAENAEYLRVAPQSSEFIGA

Take `Cc1c(Cl)cccc1Nc1c(-c2ccncc2OCC2(C)CCO2)[nH]c2c1C(=O)NCC2` (racemic) [Example 80, 3-(3-chloro-2-methylanilino)-2-(3-{[2-methyloxetan-2-yl]methoxy}pyridin-4-yl)-1,5,6,7-tetrahydro-4H-pyrrolo[3,2-c]pyridin-4-one]: the IC50 in assay [1] turned out to be 0.187 nM; at human Bub1 (read-out: Bub1 high ATP (2 mM) IC50, 2 mM ATP), 6640 nM; in the assay on Ba/F3-EGFR-insSVD (Mus musculus, BaF3, 48 h, read-out: BA/F3 (insSVD) IC50, cell viability, Cell Titer-Glo, 48 h, with 10 ng/mL EGF, without IL-3), 35.2 nM; with Ba/F3-EGFR-WT (Mus musculus, BaF3, 48 h, read-out: BA/F3 (wild type) IC50, cell viability, Cell Titer-Glo, 48 h, with 10 ng/mL EGF, without IL-3) it was 546 nM.
Turning to `COc1c(Cl)cc(F)cc1Nc1c(-c2ccncc2OCC2(C)CCO2)[nH]c2c1C(=O)NCC2` (single isomer, unassigned) [Example 70, 3-(3-chloro-5-fluoro-2-methoxyanilino)-2-(3-{[2-methyloxetan-2-yl]methoxy}pyridin-4-yl)-1,5,6,7-tetrahydro-4H-pyrrolo[3,2-c]pyridin-4-one], the IC50 was 0.161 nM in assay [1]; 18800 nM and > 20000 nM against human Bub1 (Bub1 high ATP (2 mM) IC50, 2 mM ATP); 32.7 nM with Ba/F3-EGFR-insSVD (read-out: BA/F3 (insSVD) IC50, cell viability, Cell Titer-Glo, 48 h, with 10 ng/mL EGF, without IL-3); 537 nM in the assay with Ba/F3-EGFR-WT (read-out: BA/F3 (wild type) IC50, cell viability, Cell Titer-Glo, 48 h, with 10 ng/mL EGF, without IL-3).

The record behind these values is patent US20240307362A1 (priority 2019, published 2024).
